The results in this text go back to patent publication US20240368177A1, “5-AMINO-6,8-DIHYDRO-1H-FURO[3,4-d]PYRROLO[3,2-b]PYRIDINE-2-CARBOXAMIDE DERIVATIVES AS MTA-COOPERATIVE INHIBITORS OF PRMT5” (BeiGene Switzerland GmbH, priority 2023, published 2024).

The subject of one test is HCT116-MTAP-KO. Put plainly: Cell killing in HCT116 isogenic pair (Cell Titer-Glo viability), MTAP knock-out cells. The test is classed as cell-based, human. As to conditions: Homo sapiens, HCT-116, 144 h, 6 days incubation, 0-10 μM, * = more than 50% viability inhibition at tested concentration without a full curve. The source says:
(§1) HCT116 cell line (ATCC, CCL-247) was isolated from the colon of an adult with colon cancer. It has a mutation in codon 13 of the ras proto-oncogene and can be used as a positive control for PCR assays of mutation in this codon. HCT116-MTAP-KO was knocked-out-MTAP-gene based HCT116, and a single clone was passed for this assay. HCT116-mock-RNA-KO was knocked-out-mock-gene based HCT116 with MTAP wildtype genotype. The base medium for HCT116 isogenic pair is RPMI 1640, HEPES (Gibco, 22400105). To make the complete growth medium, added the following components to the base medium: fetal bovine serum to a final concentration of 10% (Gibco, 10099-141C). The cell line was grown in a humidified 5% CO2 atmosphere at 37° C. and regularly tested for the presence of mycoplasma with MpcoAlert™ PLUS Mycoplasma Detection Kit (Lonzak LT07-710).
(§2) • Seeded HCT116-mock-RNA-KO (4E2/well) or HCT116-MTAP-KO (4E2/well) cells into a 96-well plate (Greiner: 655090), 100 μL/well. • Incubated at 37° C., 5% CO2, overnight. • Added 50 μL fresh growth medium containing serial dilution of test compounds for a final test compound concentration of 0-10 μM to each well. • Incubated at 37° C., 5% CO2, 6 days. • The cell viability was detected by Cell Titer-Glo (Promega, G7573). Added 70 μL of CeliTiter-Glo® reagent in each well. • Incubated at room temperature for 10 minutes to stabilize luminescent signal. • Analyzed with Microplate Reader (TECAN, SPARK) and fit IC50 using Prism® 9.
(In general: ATP-based viability assays read luminescence as a measure of living cells.)

In another test the test system is HCT116-mock-RNA-KO. In words: Cell killing in HCT116 isogenic pair (Cell Titer-Glo viability), mock knock-out cells with MTAP wildtype genotype. Particulars: Homo sapiens, HCT-116, 144 h, 6 days incubation, 0-10 μM. The test is classed as cell-based, human.
Description: as §1, §2

The IC50 is the concentration that gives 50% inhibition. A lower IC50 goes with greater potency. For `N#Cc1cc(F)c(CN(Cc2c(F)cccc2F)C(=O)c2cc3nc(N)c4c(c3[nH]2)COC4)c(F)c1` [Example 22, 5-amino-N-(4-cyano-2,6-difluorobenzyl)-N-(2,6-difluorobenzyl)-6,8-dihydro-1H-furo[3,4-d]pyrrolo[3,2-b]pyridine-2-carboxamide], the IC50 with HCT116-MTAP-KO is less than 1.5 nM; with HCT116-mock-RNA-KO, 11 nM.

For `CO[C@@H]1CCOC[C@H]1N(Cc1ccc(-c2c(F)cccc2F)cn1)C(=O)c1cc2nc(N)c3c(c2[nH]1)CO[C@@H]3C` [Example 23, (R)-5-amino-N-((5-(2,6-difluorophenyl)pyridin-2-yl)methyl)-N-((3R,4R)-4-methoxytetrahydro-2H-pyran-3-yl)-6-methyl-6,8-dihydro-1H-furo[3,4-d]pyrrolo[3,2-b]pyridine-2-carboxamide], the values for the IC50 in the test on HCT116-MTAP-KO and in the test on HCT116-mock-RNA-KO were 4.8 nM and 81 nM, respectively.

As for `CO[C@@H]1CCOC[C@H]1N(Cc1ccc(-c2c(F)cccc2F)cn1)C(=O)c1cc2nc(N)c3c(c2[nH]1)CO[C@H]3C` [Example 24, (S)-5-amino-N-((5-(2,6-difluorophenyl)pyridin-2-yl)methyl)-N-((3R,4R)-4-methoxytetrahydro-2H-pyran-3-yl)-6-methyl-6,8-dihydro-1H-furo[3,4-d]pyrrolo[3,2-b]pyridine-2-carboxamide], the IC50 with HCT116-MTAP-KO amounted to 103 nM; in the test with HCT116-mock-RNA-KO, 8540 nM.

For the compound `Cn1ncnc1-c1ccc(CN(C(=O)c2cc3nc(N)c4c(c3[nH]2)COC4)[C@@H]2CCCc3cccnc32)nc1` [Example 25, (R)-5-amino-N-((5-(1-methyl-1H-1,2,4-triazol-5-yl)pyridin-2-yl)methyl)-N-(5,6,7,8-tetrahydroquinolin-8-yl)-6,8-dihydro-1H-furo[3,4-d]pyrrolo[3,2-b]pyridine-2-carboxamide], the IC50 in the test on HCT116-MTAP-KO was 96 nM; with HCT116-mock-RNA-KO, 2000 nM.

For the compound `CO[C@@H]1CCOC[C@H]1N(Cc1ccc(C(F)(F)F)cn1)C(=O)c1cc2nc(N)c3c(c2[nH]1)COC3` [Example 26, 5-amino-N-((3R,4R)-4-methoxytetrahydro-2H-pyran-3-yl)-N-((5-(trifluoromethyl)pyridin-2-yl)methyl)-6,8-dihydro-1H-furo[3,4-d]pyrrolo[3,2-b]pyridine-2-carboxamide], the half-maximal inhibitory concentration (IC50) with HCT116-MTAP-KO is 14 nM; in the test with HCT116-mock-RNA-KO, 1870 nM.

As for `CO[C@@H]1CCOC[C@H]1N(Cc1ccc(-c2ccccc2)cn1)C(=O)c1cc2nc(N)c3c(c2[nH]1)COC3` [Example 27, 5-amino-N-((3R,4R)-4-methoxytetrahydro-2H-pyran-3-yl)-N-((5-phenylpyridin-2-yl)methyl)-6,8-dihydro-1H-furo[3,4-d]pyrrolo[3,2-b]pyridine-2-carboxamide], the results for the IC50 with HCT116-MTAP-KO and with HCT116-mock-RNA-KO were 2.4 nM and 284 nM, respectively.

Take `CO[C@@H]1CCOC[C@H]1N(Cc1ccc(-c2ccncc2)cn1)C(=O)c1cc2nc(N)c3c(c2[nH]1)COC3` [Example 28, N-([3,4′-bipyridin]-6-ylmethyl)-5-amino-N-((3R,4R)-4-methoxytetrahydro-2H-pyran-3-yl)-6,8-dihydro-1H-furo[3,4-d]pyrrolo[3,2-b]pyridine-2-carboxamide]: the concentration for half-maximal inhibition (IC50) with HCT116-MTAP-KO was determined as 11 nM; with HCT116-mock-RNA-KO it was 1900 nM.

As for `Nc1nc2cc(C(=O)N(Cc3ccc(-c4ccncc4)cn3)Cc3c(F)cccc3F)[nH]c2c2c1COC2` [Example 29, N-([3,4′-bipyridin]-6-ylmethyl)-5-amino-N-(2,6-difluorobenzyl)-6,8-dihydro-1H-furo[3,4-d]pyrrolo[3,2-b]pyridine-2-carboxamide], the IC50 with HCT116-MTAP-KO is 1.3 nM; in the test on HCT116-mock-RNA-KO, 81 nM.

`Nc1nc2cc(C(=O)N(Cc3ccc(-c4c(F)cncc4F)cn3)Cc3c(F)cccc3F)[nH]c2c2c1COC2` [Example 30, 5-amino-N-((3′,5′-difluoro-[3,4′-bipyridin]-6-yl)methyl)-N-(2,6-difluorobenzyl)-6,8-dihydro-1H-furo[3,4-d]pyrrolo[3,2-b]pyridine-2-carboxamide]: the IC50 in the test on HCT116-MTAP-KO stood at 0.8 nM; in the test with HCT116-mock-RNA-KO, 22 nM.

As for `Nc1nc2cc(C(=O)N(Cc3ccc(-c4c(F)cncc4F)cn3)Cc3c(Cl)cccc3Cl)[nH]c2c2c1COC2` [Example 31, 5-amino-N-(2,6-dichlorobenzyl)-N-((3′,5′-difluoro-[3,4′-bipyridin]-6-yl)methyl)-6,8-dihydro-1H-furo[3,4-d]pyrrolo[3,2-b]pyridine-2-carboxamide], the results for the IC50 in the test on HCT116-MTAP-KO and with HCT116-mock-RNA-KO were 1.2 nM and 7.1 nM, respectively.

Turning to `N#Cc1ccc(CN(Cc2c(F)cccc2F)C(=O)c2cc3nc(N)c4c(c3[nH]2)COC4)nc1` [Example 32, 5-amino-N-((5-cyanopyridin-2-yl)methyl)-N-(2,6-difluorobenzyl)-6,8-dihydro-1H-furo[3,4-d]pyrrolo[3,2-b]pyridine-2-carboxamide], the IC50 was found to be 3.9 nM in the test on HCT116-MTAP-KO and 451 nM in the test with HCT116-mock-RNA-KO.

On to `Nc1nc2cc(C(=O)N(Cc3c(F)cccc3F)CC3CC3)[nH]c2c2c1COC2` [Example 33, 5-amino-N-(cyclopropylmethyl)-N-(2,6-difluorobenzyl)-6,8-dihydro-1H-furo[3,4-d]pyrrolo[3,2-b]pyridine-2-carboxamide], for which the half-maximal inhibitory concentration (IC50) is 210 nM with HCT116-MTAP-KO and greater than 10000 nM in the test with HCT116-mock-RNA-KO.

Take `CO[C@@H]1CCOC[C@H]1N(Cc1ncc(C(F)(F)F)cc1F)C(=O)c1cc2nc(N)c3c(c2[nH]1)COC3` [Example 34, 5-amino-N-((3-fluoro-5-(trifluoromethyl)pyridin-2-yl)methyl)-N-((3R,4R)-4-methoxytetrahydro-2H-pyran-3-yl)-6,8-dihydro-1H-furo[3,4-d]pyrrolo[3,2-b]pyridine-2-carboxamide]: the figures for the IC50 in the test on HCT116-MTAP-KO and with HCT116-mock-RNA-KO were 7.4 nM and 1350 nM, respectively.

Regarding `C[C@H](c1ncccn1)N(Cc1ncc(C(F)(F)F)cc1F)C(=O)c1cc2nc(N)c3c(c2[nH]1)COC3` [Example 35, (R)-5-amino-N-((3-fluoro-5-(trifluoromethyl)pyridin-2-yl)methyl)-N-(1-(pyrimidin-2-yl)ethyl)-6,8-dihydro-1H-furo[3,4-d]pyrrolo[3,2-b]pyridine-2-carboxamide], the concentration for half-maximal inhibition (IC50) turned out to be 11 nM in the test on HCT116-MTAP-KO and 1530 nM with HCT116-mock-RNA-KO.

Regarding `CO[C@@H]1CCOC[C@H]1N(Cc1ccc(C2CC2)cn1)C(=O)c1cc2nc(N)c3c(c2[nH]1)COC3` [Example 36, 5-amino-N-((5-cyclopropylpyridin-2-yl)methyl)-N-((3R,4R)-4-methoxytetrahydro-2H-pyran-3-yl)-6,8-dihydro-1H-furo[3,4-d]pyrrolo[3,2-b]pyridine-2-carboxamide], the half-maximal inhibitory concentration (IC50) in the test with HCT116-MTAP-KO worked out at 5.8 nM; in the test on HCT116-mock-RNA-KO, 445 nM.

In the case of `Nc1nc2cc(C(=O)N(Cc3ccc(C(F)(F)F)nn3)Cc3c(F)cccc3F)[nH]c2c2c1COC2` [Example 37, 5-amino-N-(2,6-difluorobenzyl)-N-((6-(trifluoromethyl)pyridazin-3-yl)methyl)-6,8-dihydro-1H-furo[3,4-d]pyrrolo[3,2-b]pyridine-2-carboxamide], the IC50 was determined as 13 nM with HCT116-MTAP-KO and 1680 nM with HCT116-mock-RNA-KO.

In the case of `C[C@H]1OCc2c1c(N)nc1cc(C(=O)N(Cc3ccc(C(F)(F)F)cn3)Cc3ncccc3F)[nH]c21` [Example 38, (R)-5-amino-N-((3-fluoropyridin-2-yl)methyl)-6-methyl-N-((5-(trifluoromethyl)pyridin-2-yl)methyl)-6,8-dihydro-1H-furo[3,4-d]pyrrolo[3,2-b]pyridine-2-carboxamide], the values for the half-inhibitory concentration (IC50) in the test with HCT116-MTAP-KO and in the test on HCT116-mock-RNA-KO were 6.3 nM and 665 nM, respectively.

Take `CN(C(=O)c1cc2nc(N)c3c(c2[nH]1)COC3)[C@H]1COCc2cc(C(F)(F)F)ccc21` [Example 39, (R)-5-amino-N-methyl-N-(7-(trifluoromethyl)isochroman-4-yl)-6,8-dihydro-1H-furo[3,4-d]pyrrolo[3,2-b]pyridine-2-carboxamide]: the figures for the half-maximal inhibitory concentration (IC50) with HCT116-MTAP-KO and in the test with HCT116-mock-RNA-KO were 1170 nM and greater than 10000 nM, respectively.

Consider `CN(C(=O)c1cc2nc(N)c3c(c2[nH]1)COC3)[C@@H]1COCc2cc(C(F)(F)F)ccc21` [Example 40, (S)-5-amino-N-methyl-N-(7-(trifluoromethyl)isochroman-4-yl)-6,8-dihydro-1H-furo[3,4-d]pyrrolo[3,2-b]pyridine-2-carboxamide], for which the IC50 in the test with HCT116-MTAP-KO amounted to 13 nM; with HCT116-mock-RNA-KO, 2490 nM.

As to `C[C@H](c1ncccn1)N(Cc1ncc(Br)cc1F)C(=O)c1cc2nc(N)c3c(c2[nH]1)COC3` [Example 41, (R)-5-amino-N-((5-bromo-3-fluoropyridin-2-yl)methyl)-N-(1-(pyrimidin-2-yl)ethyl)-6,8-dihydro-1H-furo[3,4-d]pyrrolo[3,2-b]pyridine-2-carboxamide], the 50% inhibitory concentration (IC50) with HCT116-MTAP-KO came to 6.6 nM; with HCT116-mock-RNA-KO it was 586 nM.

For `Nc1nc2cc(C(=O)N(Cc3ncccn3)Cc3ncc(C(F)(F)F)cc3F)[nH]c2c2c1COC2` [Example 42, 5-amino-N-((3-fluoro-5-(trifluoromethyl)pyridin-2-yl)methyl)-N-(pyrimidin-2-ylmethyl)-6,8-dihydro-1H-furo[3,4-d]pyrrolo[3,2-b]pyridine-2-carboxamide], the IC50 with HCT116-MTAP-KO was determined as 24 nM; with HCT116-mock-RNA-KO it was 2500 nM.
